# Entries after “also recorded” stand apart in the source; their conditions may differ. Read-outs that look alike come from different tables or passages of the source.
# Assays:
# [1] = test system: human KB cell cultures
# Method: (§1) The cytotoxicity of diaminosucrose platinum complexes was evaluated on human KB cell cultures as follows:
# (§2) Graded doses of the respective diaminosucrose platinum (II) complexes tested contained in 0.1 ml of MEM medium were added to tube cultures of KB cells (contained in 1 ml of MEM medium with 4% fetal calf serum) immediately after seeding of ca. 2×10,000 cells/mi.
# (§3) The incubated cultures were seeded every 3 days by 3 times dilution with the particular complex tested to maintain exponential cell growth.
# (§4) After incubation the relative cytotoxic activity of the various platinum complexes was evaluated as follows:
# (§5) Treated and untreated (control) tumor cell lines were viewed under the microscope and the number of dead cells quantified by visual means. Zero activity means that 100% of the treated cells survived, i.e., like the control.
# [2] = cells; cited from earlier work
# [3] = test system: E. coli; conditions: cited from earlier work
# [4] = test system: human KB cell cultures; assay: Cytotoxicity test on human KB cell cultures (Examples 8 and 9); conditions: cells continuously cultured with the complex
# Method: as §1, §2, §3, §4, §5
# [5] = test system: Lewis lung carcinoma; assay: Effect on intraperitoneally implanted Lewis lung carcinoma in mice (Examples 10 and 12);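 note: C57BL/6 mice bearing Lewis lung tumor cells implanted intraperitoneally, treated intraperitoneally in distilled water starting day 1 after implantation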
# Method: Young adult syngeneic C57BL/6 mice (ca. 17-19 grams) were implanted intraperitoneally with 3-5×10^5 Lewis Lung tumor cells. The respective diaminosucrose platinum (II) compounds were then administered intraperitoneally in distilled water commencing the first day after tumor implantation.
# Lewis Lung tumor cells (3-5×10^5) were inoculated intraperitoneally (i.p.) into young adult syngeneic C57BL/6 mice (ca. 17-19g body weight). Administration of the platinum complexes (contained in 0.1 ml of distilled water) was started on day 1 after tumor implantation.
# [6] = test system: human KB cell cultures; assay: Cytotoxicity test of sucrose mono-, bis- and tris(platinum) complexes on human KB cell cultures (Example 11); format: cell-based; conditions: 10 μg/ml
# Method: Cultures were seeded after 3 days by 3 times dilution with the platinum complex in order to maintain exponential growth.
# The platinum complexes tested were cis-platin, a mono(platinum) complex of 6,6'-diamino-6,6'-dideoxy-1',2,3,3',4,4'-hexa-O-methylsucrose, a bis(platinum) complex of 6,6'-diamino-6,6'-dideoxy-1',2-anhydrosucrose and a tris(platinum) complex of 1',6,6' -triamino-1',6,6'-trideoxy-2,3,3',4,4'-penta-O-methylsucrose.
# [7] = test system: P388 leukemia; assay: Effect of sucrose bis(platinum) complex on P388 leukemia in syngeneic DBA/2 mice (Example 15); format: in vivo
# Source text: The effect of the sucrose bis(platinum) complex on P388 leukemia cells in syngeneic DBA/2 mice was further evaluated.
# [8] = test system: Lewis lung carcinoma; assay: Effect of dose of sucrose bis(platinum) complex on intraperitoneally implanted Lewis lung carcinoma in mice (Example 13); format: in vivo
# Method: The effect of dosage of the sucrose bis(platinum) complex on intraperitoneally implanted Lewis lung carcinoma cells was evaluated in mice. […] Administration of the complex (in 0.1 ml of distilled water) was effected on day 2 and day 4 after implantation.
# [9] = test system: P388 leukemia; assay: Effect of dose of sucrose bis(platinum) complex on P388 leukemia in syngeneic DBA/2 mice (Example 14); format: in vivo; conditions: for Changes of body weight day 1 to 2 / Increase in life span / Mean survival time: day 1
# Method: The effect of dose of sucrose bis(platinum complex on P388 leukemia cells in syngeneic DBA/2 mice was evaluated. A 0.1 ml of 10× dilution of P388 ascites (ca. 10^6 cells) was injected intraperitoneally (i.p.) into syngeneic DBA/2 mice (ca. 20 g body weight). The i.p. administration was effected on day 1 only. The bis(platinum) complex (1.0 mg/0.1 ml distilled water) had been stored for 77 days at 4° C. before administration.
# [10] = Solubility of sucrose platinum complexes; format: physicochemical; conditions: water, limits the dose
# [11] = 2 mg×2 i.p., listed as sucrose bis(platinum) complex
# [12] = 0.5 mg/mouse i.p., day 1, 2, 3, 6
smiles,measurement,setting,value
"NCCN.O=C1[O][Pt][O]C(=O)C12CC2 [Sample No. 9, cis-(ethylenediamino-N,N')-1,1-cyclopropanedicarboxylatoplatinum]",cytotoxicity (in words),[1],more toxic than Sample No. 10 or Sample No. 6
"N.N.[Cl][Pt][Cl] [Sample No. 1, Cis-dichlorodiamine platinum]",saturability and inhibition of accumulation (in words),[2],accumulation is not saturable up to 3 mM cisplatin and cannot be inhibited with structural analogs
same,prevention of DNA replication (in words),[3]; listed as cisplatin,have the ability to prevent DNA replication in E. coli
"NC1C(O)OC(CO)C(O)C1O.[NH2][Pt]([Cl])[Cl] (centres unmarked) [Sample No. 11, N-(amminedichloroplatinato)-2-aminoglucose]",cytotoxicity (in words),[1],appears not to exhibit toxicity immediately but rather exhibits a delayed toxic response which occurs gradually during the incubation period
"COCC1(OC2OC(CN)C(OC)C(OC)C2OC)OC(CN)C(OC)C1OC.[Cl][Pt][Cl] (stereo not drawn) [Sample No. 2, N-N'-(cis-dichloroplatinato)-6,6'-diamino-6,6'-dideoxy-1',2,3,3',4,4'-hexa-O-methylsucrose]",minimum cytotoxic concentration,[4],125 µg/mL
same,Changes of body weight day 1 to 7,"[5]; 2 mg/mouse i.p., day 1, 3",+2.0 g
same,Increase in life span,"[5]; 2 mg/mouse i.p., day 1, 3",-1%
same,Mean survival days,"[5]; 2 mg/mouse i.p., day 1, 3",13.8 days
same,No. of mice survival/total,"[5]; 2 mg/mouse i.p., day 1, 3",0/5
same,antitumor activity (in words),[5]; 2 mg×2 i.p.,no antitumor activity
same,toxicity to the host / body weight (in words),"[5]; 2 mg×2 i.p., listed as sucrose mono(platinum) complex",no antitumor activity nor toxicity to the host
"N.N.[Cl-].[Cl-].[OH-].[OH-].[Pt+4] [cis, cis-diamine-dichloro-trans-dihydroxoplatinum (IV)]",prevention of DNA replication (in words),[3],have the ability to prevent DNA replication in E. coli
"N.N.NCC1OC2OC3(COC2C(O)C1O)OC(CN)C(O)C3O.[Cl][Pt][Cl].[Cl][Pt][Cl] (stereo not drawn) [Sample No. 6, N,N'-bis[cis-amminedichloroplatinato]-6,6'-diamino-6,6'-dideoxy-1',2-anhydrosucrose]",Cytotoxicity,"[6]; 11.2 nM, 14 days incubation",3+ (66% of the treated cells appear to be dead)
same,minimum cytotoxic concentration,[4],10 µg/mL
same,Changes of body weight day 1 to 7,"[5]; 2 mg/mouse i.p., day 1, 3",-3.0 g
same,Increase in life span,"[5]; 2 mg/mouse i.p., day 1, 3",> 210%
same,Mean survival days,"[5]; 2 mg/mouse i.p., day 1, 3",> 43.4 days
same,No. of mice survival/total,"[5]; 2 mg/mouse i.p., day 1, 3",3/5
same,antitumor activity (in words),[5]; 2 mg×2 i.p.,substantial antitumor activity
same,"recovery, survival and tumor-free outcome (in words)",[5]; 2 mg×2 i.p.,"All of the mice treated, however, recovered the loss of body weight and were tumor-free by day 30"
same,toxicity to the host / body weight (in words),[5]; 2 mg×2 i.p.,significant reduction of body weight
same,antitumor activity (in words),[5]; [11],remarkable antitumor activity
same,"recovery, survival and tumor-free outcome (in words)",[5]; [11],"All the mice treated gradually recovered from the toxicity; however, 2 mice died of tumor growth on days 32 and 35. Three mice survived healthy and tumor-free up to the end of the observation period (day 50)"
same,maximum tolerable dose,"[5]; i.p., per mouse, judged from body weight loss",~2 mg×2
same,Changes of body weight day 1 to 2,"[7]; 1.0 mg/mouse i.p., day 1",-1.0 g
same,Increase in life span,"[7]; 1.0 mg/mouse i.p., day 1",> 89%
same,Mean survival time,"[7]; 1.0 mg/mouse i.p., day 1",> 16.6
same,prolongation of survival time over the controls,[7]; dose of 1.0,84%
same,antitumor activity / cure (in words),"[7]; dose of 1.0, listed as sucrose bis(platinum) complex",significant antitumor activity; also recorded: one mouse appearing cured
same,Changes of body weight day 1 to 7,"[8]; 0.1 mg/mouse i.p., day 2, 4",+2.0 g
same,Increase in life span,"[8]; 0.1 mg/mouse i.p., day 2, 4",> 135%
same,Mean survival time,"[8]; 0.1 mg/mouse i.p., day 2, 4",> 48.8
same,antitumor activity (in words),[8]; 0.1 mg×2 i.p.,significant antitumor activity
same,tumor-free survival (in words),"[8]; 0.1 mg×2 i.p., observation to day 50",Three mice survived healthy and tumor-free up to the end of the observation period (day 50)
same,antitumor activity (in words),[9]; 0.1 mg i.p.,no antitumor activity
same,Changes of body weight day 1 to 2,[9]; 0.1 mg/mouse i.p.,-0.2 g
same,Increase in life span,[9]; 0.1 mg/mouse i.p.,16%
same,Mean survival time,[9]; 0.1 mg/mouse i.p.,> 8.8
same,antitumor activity (in words),"[9]; 2 mg / high doses, i.p., listed as sucrose bis(platinum) complex",significant antitumor activity; also recorded: definite antitumor activity
same,Changes of body weight day 1 to 2,[9]; 2 mg/mouse i.p.,-1.5 g
same,Increase in life span,[9]; 2 mg/mouse i.p.,> 111%
same,Mean survival time,[9]; 2 mg/mouse i.p.,> 16.0
same,activity against P388 leukemia compared with cisplatin (in words),[9]; high doses,comparable to that of cisplatin against P388 leukemia
same,systemic toxicity (in words),[9]; high doses,still not toxic systemically
"N.N.[Cl][Pt][Cl] [transplatin, trans-diamine-dichloroplatinum (II)]",prevention of DNA replication (in words),[3],does not comprise this activity
N.N.[Cl][Pt]([Cl])([Cl])[Cl] [cis-cis-trans-diaminetetrachloroplatinum (IV)],prevention of DNA replication (in words),[3],have the ability to prevent DNA replication in E. coli
"COC1C(CN)OC(OC2(CN)OC(CN)C(OC)C2OC)C(OC)C1OC.[NH2][Pt]([Cl])[Cl].[NH2][Pt]([Cl])[Cl].[NH2][Pt]([Cl])[Cl] (stereo not drawn) [Sample No. 7, N,N',N""-tris[cis-amminedichloroplatinato]-1'6,6'-triamino-1',6,6'-trideoxy-2,3,3',4,4'-penta-O-methylsucrose]",Cytotoxicity,"[6]; 7.9 nM, 10 days incubation",3+ (66% of the treated cells appear to be dead)
same,minimum cytotoxic concentration,[4],10 µg/mL
same,Changes of body weight day 1 to 7,[5]; [12],-0.8 g
same,Increase in life span,[5]; [12],> 255%
same,Mean survival days,[5]; [12],> 39.8 days
same,No. of mice survival/total,[5]; [12],3/5
same,antitumor activity (in words),[5]; 0.5 mg×4 i.p.,remarkable antitumor activity
same,reduction of body weight (in words),[5]; 0.5 mg×4 i.p.,moderate reduction of body weight
same,survival and tumor-free outcome (in words),"[5]; 0.5 mg×4 i.p., observation to day 50",Two mice died of tumor growth on day 22 and day 27. Three mice survived tumor-free until the end of the observation period (day 50)
same,reduction of body weight (in words),"[5]; 0.5 mg×4 i.p., listed as sucrose tris(platinum) complex",moderate .reduction in body weight
same,aqueous solubility (in words),[10],Larger dosages were not possible because of the solubility constraints
same,aqueous solubility (in words),[10]; listed as sucrose tris(platinum) complex,limited solubility
"COCC1(OC2OC(CN)C(OC)C(OC)C2OC)OC(CN)C(OC)C1OC.O=C1[O][Pt][O]C(=O)C12CC2 (stereo not drawn) [Sample No. 5, N,N'-(cis-[1,1-cyclopropanedicarboxylato-platinato)]-6,6'-diamino-6,6'-dideoxy-1',2,3,3',4,4'-hexa-O-methylsucrose]",cytotoxicity (in words),[1],not very toxic
